In patent US7572798B2, “Combi-molecules having signal transduction inhibitory properties and DNA damaging properties” (McGill University, priority 2001, dated 2009):
“Also recorded” adds a separate entry of the source. Like-named read-outs stand apart in the source and are kept apart here.

How the values were obtained:
EGFR [1] = target: T1, EGFR (Homo sapiens, UniProt P00533); assay: Reverse EGFR autophosphorylation (reversibility) assay in A431 cells; format: cell-based; conditions: A431, 30 μM
T1 sequence (P00533 25-1210): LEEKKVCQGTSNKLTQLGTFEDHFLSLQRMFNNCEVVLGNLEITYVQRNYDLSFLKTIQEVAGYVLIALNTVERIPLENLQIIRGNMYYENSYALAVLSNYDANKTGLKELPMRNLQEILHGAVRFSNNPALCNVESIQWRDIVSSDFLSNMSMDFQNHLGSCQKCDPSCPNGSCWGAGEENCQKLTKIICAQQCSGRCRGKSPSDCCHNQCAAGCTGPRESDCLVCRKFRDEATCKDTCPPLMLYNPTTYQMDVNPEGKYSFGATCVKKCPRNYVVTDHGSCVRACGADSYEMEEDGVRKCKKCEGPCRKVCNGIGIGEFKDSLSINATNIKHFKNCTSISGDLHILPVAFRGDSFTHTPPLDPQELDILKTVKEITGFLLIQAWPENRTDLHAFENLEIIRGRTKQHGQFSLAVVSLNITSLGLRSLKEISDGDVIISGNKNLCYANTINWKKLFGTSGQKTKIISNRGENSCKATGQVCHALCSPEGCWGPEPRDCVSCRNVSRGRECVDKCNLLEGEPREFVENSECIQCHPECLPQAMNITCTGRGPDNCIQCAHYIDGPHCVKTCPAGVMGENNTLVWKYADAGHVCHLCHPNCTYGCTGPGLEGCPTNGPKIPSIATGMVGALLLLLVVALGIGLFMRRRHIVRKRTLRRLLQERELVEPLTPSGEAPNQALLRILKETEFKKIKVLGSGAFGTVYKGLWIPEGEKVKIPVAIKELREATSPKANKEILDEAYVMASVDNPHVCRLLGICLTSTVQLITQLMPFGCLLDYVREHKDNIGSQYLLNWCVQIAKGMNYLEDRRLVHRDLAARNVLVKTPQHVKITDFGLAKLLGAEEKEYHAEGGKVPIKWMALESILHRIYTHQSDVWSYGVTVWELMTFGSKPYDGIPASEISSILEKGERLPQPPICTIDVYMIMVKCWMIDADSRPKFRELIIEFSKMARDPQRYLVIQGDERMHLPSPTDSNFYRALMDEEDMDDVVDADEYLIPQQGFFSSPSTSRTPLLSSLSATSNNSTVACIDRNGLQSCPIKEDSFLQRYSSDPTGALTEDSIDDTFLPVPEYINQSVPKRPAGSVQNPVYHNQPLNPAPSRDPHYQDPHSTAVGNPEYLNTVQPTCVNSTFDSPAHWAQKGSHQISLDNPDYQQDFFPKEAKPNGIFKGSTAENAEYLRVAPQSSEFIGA
Method: To test this hypothesis, the reversibility assay (40, 41) was used, according to which the cells are treated with the drug for 90 min after which the culture medium is repeatedly removed and replaced 3 times, followed by the measurement of EGFR autophosphorylation.
A431 cells were grown to confluence in 6-well plates and then incubated in serum-free medium for 18 h (41). Duplicate sets of cells were then treated with 30 μM of each compound for 90 min. One set of cells was then stimulated with EGF (100 ng/ml) for 10 min and extracts were made as described under the Western blotting procedure above. The other set of cells was washed free of each compound with warmed serum-free media and incubated for 2 h. Thereafter, the cells were washed, incubated for another 2 h, washed again, and then incubated for a further 4 h. This set of cells was then stimulated with EGF and extracts were prepared as for the first set.

A431 cells = assay: SRB growth inhibition assay in A431 cells; format: cell-based, human; conditions: for IC50: Homo sapiens
Method: All growth inhibitory activities were evaluated using the SRB assay (33). Briefly, following drug treatment, cells were fixed using 50 μL of cold trichloroacetic acid (50%) for 60 min at 4° C., washed five times with tap water, and stained for 30 min at room temperature with SRB (0.4%) dissolved in acetic acid (0.5%). The plates were rinsed five times with 1% acetic acid and allowed to air dry. The resulting colored residue was dissolved in 200 μL of Tris base (10 mM), and the optical density read for each well at 540 nm using a Bio-Rad microplate reader (model 2550). […]
Cell monolayers were continuously exposed to different concentrations of each drug for 72 h. Under short exposure, they were treated with each drug for 2 h and allowed to recover for 72 h in drug-free medium.
To study the reversibility of the antiproliferative effects of our compounds, cells were grown to 70% confluence in 96-well plates and subsequently washed twice with PBS, after which they were exposed to serum-free medium for 18 h. Under continuous exposure, the cells were exposed to different concentrations of each drug for 120 h. Under short exposure, they were exposed to each drug for 2 h, after which they were allowed to recover for 120 h in drug free medium. Growth inhibitory activities were evaluated using the SRB assay as described above.

MAPK = assay: EGF-induced MAPK phosphorylation in A431 cells (Western blot); format: cell-based, human; conditions: A431, at concentrations as low as 1 μM
Method: For the inhibition study of mitogen-activated protein kinase (MAPK) activation by BJ2000, protein lysates were obtained as described above and a Western blot was performed (39). The membrane was incubated with anti-phosphorylated MAPK antibodies or antibodies specific for MAPK (Cell Signaling, Beverly, Mass., USA).

EGFR [2] = target: T1, EGFR; assay: EGF-induced EGFR autophosphorylation in A431 cells (Western blot)
Method: The inhibition of receptor autophosphorylation in viable cells was determined by anti-phosphotyrosine Western Blots. A431 cells were pre-incubated overnight for 24 h at 37° C. in a 6-well plate (1×10^6) with 0.1% serum, after which they were exposed to a range of doses for each drug for 2 h and subsequently treated with 50 ng/mL EGF for 30 min at 37° C. The cells were thereafter washed with PBS and re-suspended in cold lysis buffer [50 mM Tris-HCl pH 7.5; 150 mM NaCl; 1% NP40, 1 mM EDTA; 5 mM NaF; 1 mM Na3VO4; protease inhibitor tablet (Roche Biochemicals, Laval, Canada)]. The lysates were kept on ice for 30 min and collected by centrifugation at 10 000 rpm for 20 min at 4° C. The protein concentrations were determined against a standardized control using the Bio-Rad protein assay kit (Bio-Rad Laboratories, Hercules, Calif.). […] Non-specific binding on the PVDF membrane was minimized with a blocking buffer containing nonfat dry milk (3%) in PBS. The membrane was blotted with primary antibodies [either antiphosphotyrosine antibody (UBI, Lake Placid, N.Y.) for the detection of phosphotyrosine, or anti-EGFR (Neomarkers, Fremont, Calif.) for the determination of corresponding receptor levels], and anti-β-tubulin (Neomarkers, Fremont, Calif.) for the detection of equal loading. Thereafter, blots were incubated with HRP-goat anti-mouse antibody (1:200 dilution; Bio-Rad Laboratories, Hercules, Calif.) and the bands visualized with an enhanced chemiluminescence system (Amersham Pharmacia Biotech, Buckinghamshire, UK). Band intensities were measured using the SynGene GeneTools software package (Cambridge, UK).
The inhibition of receptor autophosphorylation in viable cells was determined by anti-phosphotyrosine Western Blots. […] Protein concentrations were determined against a standardized control using the Bio-Rad protein assay kit (Bio-Rad Laboratories, Hercules, Calif.). […] Band intensities were measured using the SynGene GeneTools software package (Cambridge, UK).

NIH3T3HER14 cells = assay: Growth factor-stimulated proliferation in NIH3T3HER14 cells (SRB); format: cell-based, mouse
Method: To study the effect of our compounds on growth factors stimulated proliferation, cells were grown to 70% confluence in 48-well plates and washed twice with PBS, after which they were exposed to serum-free medium for 18 h. The cells were then exposed to each drug and growth factors (EGF, TGFα, PDGF or serum) for 72 h and cell growth measured using the sulforhodamine B (SRB) assay (33). Briefly, following drug treatment, cells were fixed using 50 μl of cold trichloroacetic acid (50%) for 60 min at 4° C., washed five times with tap water, and stained for 30 min at room temperature with SRB (0.4%) dissolved in acetic acid (0.5%). The plates were rinsed five times with 1% acetic acid and allowed to air dry. […] Each point represents the average of at least two independent experiments run in triplicate.

[3] = tested on: NIH3T3 and NIH3T3HER14 cells; assay: Alkaline comet assay in isogenic pair NIH3T3 / NIH3T3HER14; format: cell-based, mouse; conditions: NIH3T3HER14 versus NIH3T3, 30 min
Method: The alkaline comet assay was performed as previously described (26). […] Cell suspensions were diluted to approximately 10^6 cells, and mixed with agarose (1%) in PBS at 37° C. in a 1:10 dilution. The gels were cast on Gelbond strips (Mandel Scientific, Guelph, Canada) using gel casting chambers, as previously described (31), and then immediately placed in a lysis buffer [2.5 M NaCl, 0.1 M tetra-sodium EDTA, 10 mM Tris-base, 1% (w/v) N-lauryl sarcosine, 10% (v/v) DMSO, and 1% (v/v) Triton X-100, pH 10.0]. After being kept on ice for 30 min, the gels were gently rinsed with distilled water and immersed in a second lysis buffer (2.5 M NaCl, 0.1 M tetrasodium EDTA, 10 mM Tris-base) containing 1 mg/ml proteinase K for 60 min at 37° C. Thereafter, the gels were rinsed with distilled water, incubated in alkaline electrophoresis buffer for 30 min at 37° C., and electrophoresed at 300 mA for 60 min. […] Comets were visualized at 330× magnification and DNA damage was quantitated using the Tail Moment parameter (i.e., the distance between the barycenter of the head and the tail of the comet multiplied by the percentage of DNA within the tail of the comet). A minimum of 50 cell comets were analyzed for each sample, using ALKOMET version 3.1 image analysis software, and values are averages of tail moments for the entire cell population per sample.

EGFR [4] = target: T1, EGFR; assay: EGFR TK ELISA with PGT substrate (competitive binding at the ATP site); format: biochemical; design: purchased BIOMOL (Plymouth Meeting); also a gift from Pfizer Inc
Method: The ability of the combi-molecules to block EGFR TK activity was determined by an ELISA assay using poly(L-glutamic acid-L-tyrosine, 4:1) PGT as a substrate and commercially available EGFR.
Nunc MaxiSorp 96-well plates were incubated overnight at 37° C. with 100μL per well of 0.25 mg/mL PGT in PBS. Excess PGT was removed and the plates were washed 3 times with Tween 20 (0.1%) in PBS. […] The compound was added and phosphorylation initiated by the addition of ATP (20 μM). After 8 min at room temperature with constant shaking, the reaction was terminated by the aspiration of the reaction mixture and by rinsing the plate 4 times with wash buffer (Tween 20 (0.1%) in PBS). […] Antibody was removed by aspiration, and the plates washed 4 times with wash buffer. The signals were developed by the addition of 50 μL per well of TMB peroxidase substrate (Kierkegaard and Perry Laboratories, Gaithersberg, Md.).
This assay is similar to the one previously described. Nunc MaxiSorp 96-well plates were incubated overnight at 37° C. with 100 μl/well of 25 ng/ml PGT in PBS. Excess PGT was removed and the plates were washed three times with wash buffer (Tween 20 (0.1%) in PBS). […] The compound was added and phosphorylation initiated by the addition of ATP (20 μM). After 8 min at room temperature with constant shaking, the reaction was terminated by aspirating the mixture and by rinsing the plates four times with wash buffer Tween 20 (0.1%) in PBS. […] Antibody was removed by aspiration, and the plate washed four times with wash buffer. The signals were developed by the addition of 50 μl/well of 3,3′,5,5′-tetramethylbenzidine (TMB) peroxidase substrate (Kierkegaard and Perry Laboratories, Gaithersberg, Md., USA).

human c-src = target: T2, human c-src (Homo sapiens, UniProt P12931); assay: c-src kinase ELISA; format: biochemical; conditions: 1-100 μM range
T2 construct: purchased Upstate NY; host or cells: Baculovirus expression
T2 sequence (P12931 whole entry): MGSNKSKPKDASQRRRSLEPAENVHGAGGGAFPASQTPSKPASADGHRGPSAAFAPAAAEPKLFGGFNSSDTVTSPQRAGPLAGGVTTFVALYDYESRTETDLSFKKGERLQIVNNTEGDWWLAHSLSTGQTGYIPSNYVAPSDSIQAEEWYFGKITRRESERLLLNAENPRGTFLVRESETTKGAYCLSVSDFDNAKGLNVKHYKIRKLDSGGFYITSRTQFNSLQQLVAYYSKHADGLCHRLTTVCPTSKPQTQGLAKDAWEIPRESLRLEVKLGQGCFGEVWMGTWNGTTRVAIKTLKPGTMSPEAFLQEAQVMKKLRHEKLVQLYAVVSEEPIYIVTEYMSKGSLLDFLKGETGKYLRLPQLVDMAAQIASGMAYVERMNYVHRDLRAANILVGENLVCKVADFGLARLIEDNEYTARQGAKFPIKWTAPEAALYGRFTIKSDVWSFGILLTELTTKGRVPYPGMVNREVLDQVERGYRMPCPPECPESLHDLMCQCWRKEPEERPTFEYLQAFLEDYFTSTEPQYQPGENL
Method: Conditions for the c-src and insulin kinase assays were similar to those of the EGFR kinase assay, with the exception of the addition of 1 mM manganese chloride to the assay buffer, and a final ATP concentration of 100 μM. The reaction was terminated by the addition of 50 μl of a 250 mM solution of EDTA prior to aspiration.

PDGFR = assay: PDGF-induced PDGFR autophosphorylation in NIH3T3 cells (Western blot); format: cell-based, mouse; conditions: concentrations as high as 30 μM
Method: The inhibition of receptor autophosphorylation in viable cells was determined by anti-phosphotyrosine Western Blots. A431 and NIH3T3 cells were grown to confluence in 6-well plates, washed twice with PBS and exposed to serum-free medium for 18 h. They were subsequently treated with the compounds for 90 min and then with EGF (100 ng/ml) for 10 min (A431 cells), or with PDGF (100 ng/ml) for 10 min (NIH3T3 cells). They were thereafter washed with PBS and re-suspended in cold lysis buffer [50 mM Tris-HCl pH 7.5; 150 mM NaCl; 1% Nonidet P-40, 1 mM EDTA; 5 mM NaF; 1 mM Na3VO4; protease inhibitor tablet (Roche Biochemicals, Laval, Canada)]. The lysates were kept on ice for 30 min and collected by centrifugation at 10,000 rpm for 20 min at 4° C. Protein concentrations were determined against a standardized control using the Bio-Rad protein assay kit (Bio-Rad Laboratories, Hercules, Calif.). Equal amounts of protein (40 μg/mL) from each cell lysate were added to an 8% SDS-polyacrylamide gel electrophoresis (SDS-PAGE) and transferred to a polyvinylidene difluoride membrane (PVDF) (Millipore, Bedford, Mass.). Non-specific binding on the membrane was minimized with a blocking buffer containing non-fat dry milk (3%) in PBS. […] Band intensities were measured using the SynGene GeneTools software package (Cambridge, UK).

`CNN=Nc1ccc2ncnc(Nc3cccc(Cl)c3)c2c1` [BJ2000] was tested. Which “EGF-dependent EGFR autophosphorylation immediately after drug exposure” value (EGFR [1]; 90 min) did it give?
The value was “completely suppressed”.

What about the “EGFR autophosphorylation activity restored” value (EGFR [1]; 8 h post-treatment in drug-free medium after repeated washouts) of the same compound?
The value was 40%.

And the “fold more potent than metabolite FD105” value (A431 cells; 120 h continuous, SRB, A431)?
The value was “≈ 3 fold”.

What about the IC50 (A431 cells; A-431, 120 h, read-out: IC50 growth inhibition) of the same compound?
The IC50 was 15 µM.

And the IC50 (A431 cells; A-431, read-out: IC50 growth inhibition)?
The IC50 was 38 µM.

What about the “inhibition of EGF-induced MAPK phosphorylation” value (MAPK) of the same compound?
Its value is “complete inhibition; also recorded: block MAPK phosphorylation”.

And the IC50 (EGFR [2])?
Its IC50 is about 6 µM.

What about the “concentration giving 100% growth inhibition” value (NIH3T3HER14 cells; EGF or TGFα-induced proliferation, NIH3T3HER14, 72 h) of the same compound?
Its value is 1 µM.

And the “concentration giving 100% inhibition” value (NIH3T3HER14 cells; PDGF-stimulated growth, NIH3T3HER14, 72 h)?
The value was “approximately 30 μM”.

What about the “fold less effective in inhibiting PDGF-stimulated growth” value (NIH3T3HER14 cells; versus EGF or TGFα-induced proliferation, NIH3T3HER14) of the same compound?
Its value is “approximately 30 fold”.

What about the “fold higher levels of DNA damage in the EGFR transfectant” value [3] of the same compound?
The value was “more than 2 fold”.

What about the “fold stronger affinity than SMA41” value (EGFR [4]) of the same compound?
Its value is 2 fold.

What about the IC50 (EGFR [4]; ELISA, PGT substrate, purified EGFR, ATP 20 μM, 8 min, read-out: IC50, inhibition of EGFR TK (competitive binding at ATP site)) of the same compound?
The IC50 was 0.1 µM.

What about the “fold greater EGFR binding affinity than metabolite FD105” value (EGFR [4]; purified EGFR, ATP site) of the same compound?
The value was 2 fold.

What about the “effect on c-src TK activity” value (human c-src) of the same compound?
Its value is “did not block c-src TK activity”.

And the “effect on PDGF-induced PDGFR autophosphorylation” value (PDGFR)?
Its value is “no effect”.
